Assay results reported in patent US7727736B2, “Soluble phospholipids for use in clotting factor assays” (The University of North Carolina at Chapel Hill, priority 2003, dated 2010).

Tests used:
factor IXa [1] = biological target: T1, factor IXa (Homo sapiens, UniProt P00740); experiment: Activation of factor X by factor IXa (proteolytic activity); format: biochemical
T1 construct: intrinsic tryptophan fluorescence of factor IXa
Procedure: The assay was conducted in the presence of increasing concentrations of C6PS.
C6PS promotes the proteolytic activation of factor X by factor IXa, just as it promotes the proteolytic activation of prothrombin by factor Xa. […] The rate of activation of factor X by factor IXa in the presence of 700 μM C6PS was monitored at different concentrations of factor X (FIG. 11). The KM for this reaction was 300 nM, which is the same as that obtained with 20% PS/PC membranes (Larson et al. (1996) J. Biol. Chem. 271 3869).

APC = APC (Homo sapiens, UniProt P04070); experiment: SPS binding to APC; conditions: other experiments
From the text: Proteolysis at Arg^506 leads to partial inactivation, but proteolysis at Arg^306 is necessary for full inactivation (Kalafatis & Mann (1993) J. Biol. Chemistry 268 27246; Nicolaes et al., (1995) J. Biol. Chemistry (1995) 270 21158). […] The rate of proteolysis of the bond at Arg^306 increased from undetectable to a value of kcat/KM=3-3.5×10^6 M^−1sec^−1, identical to the rate reported with PS-containing membranes.

FXa•FVa2 complex = biological target: T2, FXa•FVa2 complex (Homo sapiens, UniProt P00742+P12259); experiment: Native gel electrophoresis (Ferguson analysis), C6PS bound to FXa•FVa2 complex; format: binding
T2 construct: Human prothrombin and factor Xa; tissue Hematologic Technologies Inc. (factor Xa only); factor Xa purchased
Procedure: A mixture of FXa and FVa2 in the absence (lane 1 of gel) and presence (lane 2) of 400 μM C6PS (5 mM Ca^2+) was analyzed by native polyacrylamide gel electrophoresis on a standard 6% gel (Majumder, et al. (2002) supra). A log-log plot of retardation coefficients versus molecular mass of different reference proteins is also shown (open circles). Points have been added to this plot for retardation coefficients obtained for FXa (triangle) or FVa2 (4-point star) in the absence of C6PS, and of the FXa•FVa2 complex (5-point star) formed in the presence of C6PS. The apparent molecular weight of the complex, as identified from this plot, was 224±3.7 kilodaltons.
Native Gel Electrophoresis. This method has been used to document the association of blood coagulation proteins in solution (Majumder, et al. (2002) supra; Majumder, et al. (2003) supra). […] Protein retardation coefficients, which depend to a good approximation only on the hydrodynamic size and shape of the protein, were determined for both the marker and unknown proteins (Ferguson (1964) Metabolism 13:985-1002). A log-log plot of the retardation coefficient against the molecular weights of the marker proteins produced a linear curve from which the molecular weight of the FVa•FXa complex was determined from its measured retardation coefficient (Bryan (1977) Anal. Biochem. 78(2):513-9). […]

factor IXa [2] = biological target: T1, factor IXa; experiment: Binding of C6PS to Factor IXa detected by intrinsic fluorescence; conditions: 0.20 μM factor IXa, 5 mM calcium, 22° C., single binding site model; read-out: stoichiometric Kd of C6PS binding to factor IXa
Procedure: Integrated intrinsic fluorescence of 0.20 μM factor IXa in 50 mM Tris, 150 mM NaCl, 5 mM CaCl2, and 0.6% PEG, pH 7.5 was measured as a function of C6PS concentration at 22° C. to follow C6PS binding.

T1 sequence (P00740 47-191 limits assumed): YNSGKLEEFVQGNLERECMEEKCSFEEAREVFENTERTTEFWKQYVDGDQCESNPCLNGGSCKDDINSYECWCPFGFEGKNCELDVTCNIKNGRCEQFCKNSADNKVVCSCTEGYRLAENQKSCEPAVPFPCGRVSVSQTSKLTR
T1 sequence (P00740 227-461 limits assumed): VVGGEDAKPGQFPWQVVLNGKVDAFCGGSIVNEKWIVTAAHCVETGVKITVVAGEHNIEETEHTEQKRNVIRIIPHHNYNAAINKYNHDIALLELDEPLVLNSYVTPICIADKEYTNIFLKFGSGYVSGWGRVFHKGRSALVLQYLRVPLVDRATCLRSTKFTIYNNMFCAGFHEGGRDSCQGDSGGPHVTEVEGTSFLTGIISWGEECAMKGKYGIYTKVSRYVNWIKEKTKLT
T2 sequence (P00742 41-179 limits assumed): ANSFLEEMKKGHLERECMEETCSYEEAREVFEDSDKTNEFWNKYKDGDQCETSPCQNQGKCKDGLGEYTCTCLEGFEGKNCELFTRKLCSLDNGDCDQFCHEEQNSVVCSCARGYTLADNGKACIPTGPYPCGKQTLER
T2 sequence (P00742 235-488 limits assumed): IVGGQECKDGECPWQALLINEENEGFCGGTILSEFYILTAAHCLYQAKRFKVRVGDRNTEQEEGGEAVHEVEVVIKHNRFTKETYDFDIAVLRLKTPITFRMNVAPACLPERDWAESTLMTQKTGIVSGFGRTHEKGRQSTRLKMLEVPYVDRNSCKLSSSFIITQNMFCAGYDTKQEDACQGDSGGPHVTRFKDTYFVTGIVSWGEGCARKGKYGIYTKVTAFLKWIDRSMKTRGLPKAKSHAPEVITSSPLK
T2 sequence (P12259 29-737 limits assumed): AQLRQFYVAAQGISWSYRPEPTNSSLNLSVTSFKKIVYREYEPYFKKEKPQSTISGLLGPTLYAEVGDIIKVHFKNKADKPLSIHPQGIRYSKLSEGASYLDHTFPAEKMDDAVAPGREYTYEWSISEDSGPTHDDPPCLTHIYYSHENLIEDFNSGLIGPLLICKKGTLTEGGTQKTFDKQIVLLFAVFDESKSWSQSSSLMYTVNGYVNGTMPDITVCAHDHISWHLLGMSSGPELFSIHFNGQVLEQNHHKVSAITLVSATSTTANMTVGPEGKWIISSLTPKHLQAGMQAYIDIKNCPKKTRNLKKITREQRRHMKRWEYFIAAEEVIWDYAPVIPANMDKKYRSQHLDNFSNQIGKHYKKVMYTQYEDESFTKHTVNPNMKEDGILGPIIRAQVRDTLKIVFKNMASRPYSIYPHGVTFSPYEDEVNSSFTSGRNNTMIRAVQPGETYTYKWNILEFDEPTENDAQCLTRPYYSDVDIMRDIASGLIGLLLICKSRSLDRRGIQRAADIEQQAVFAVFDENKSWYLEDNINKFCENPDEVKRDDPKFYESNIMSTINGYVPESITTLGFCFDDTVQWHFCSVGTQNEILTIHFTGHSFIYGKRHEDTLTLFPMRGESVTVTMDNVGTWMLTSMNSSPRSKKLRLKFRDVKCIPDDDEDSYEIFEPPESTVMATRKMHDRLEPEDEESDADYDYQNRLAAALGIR
T2 sequence (P12259 1574-2224 limits assumed): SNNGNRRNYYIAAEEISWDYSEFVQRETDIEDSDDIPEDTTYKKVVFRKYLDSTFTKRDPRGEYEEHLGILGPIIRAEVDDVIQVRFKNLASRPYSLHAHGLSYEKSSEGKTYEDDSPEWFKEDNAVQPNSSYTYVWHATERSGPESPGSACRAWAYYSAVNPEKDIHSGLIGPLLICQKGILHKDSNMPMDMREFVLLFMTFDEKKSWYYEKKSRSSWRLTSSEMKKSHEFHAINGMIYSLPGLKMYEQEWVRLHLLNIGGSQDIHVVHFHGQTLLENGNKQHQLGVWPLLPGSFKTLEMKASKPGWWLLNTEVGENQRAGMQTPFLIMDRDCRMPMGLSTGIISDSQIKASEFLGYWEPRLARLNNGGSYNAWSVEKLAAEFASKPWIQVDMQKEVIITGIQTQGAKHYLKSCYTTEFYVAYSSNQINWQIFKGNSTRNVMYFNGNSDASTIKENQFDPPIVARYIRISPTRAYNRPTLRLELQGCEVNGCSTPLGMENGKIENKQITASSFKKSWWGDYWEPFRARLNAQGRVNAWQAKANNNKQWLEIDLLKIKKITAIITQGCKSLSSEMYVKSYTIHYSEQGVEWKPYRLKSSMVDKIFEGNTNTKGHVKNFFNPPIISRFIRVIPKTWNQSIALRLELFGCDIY
Chain of APC (P04070 43-197 limits assumed): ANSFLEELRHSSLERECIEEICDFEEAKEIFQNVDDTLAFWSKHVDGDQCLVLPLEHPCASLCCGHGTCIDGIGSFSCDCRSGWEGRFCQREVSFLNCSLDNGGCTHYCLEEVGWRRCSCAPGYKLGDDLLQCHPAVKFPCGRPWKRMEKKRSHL
Chain of APC (P04070 212-461 limits assumed): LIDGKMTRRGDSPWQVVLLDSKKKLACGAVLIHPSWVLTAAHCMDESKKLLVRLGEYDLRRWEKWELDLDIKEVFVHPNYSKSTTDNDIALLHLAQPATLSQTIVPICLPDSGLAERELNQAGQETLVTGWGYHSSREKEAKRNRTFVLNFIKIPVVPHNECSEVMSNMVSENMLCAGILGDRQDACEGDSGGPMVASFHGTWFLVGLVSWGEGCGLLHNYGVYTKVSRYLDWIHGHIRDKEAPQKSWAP

CCCCCC(=O)OC[C@H](COP(=O)(O)OC[C@H](N)C(=O)O)OC(=O)CCCCC [C6PS, 1,2-dicaproyl-sn-glycero-3-phospho-L-serine]
Kd (factor IXa [1]; 10 nM IXa, 5 mM calcium, read-out: Kd from proteolytic activity of IXa (hyperbolic fit)): 164000 nM
rate of activation of factor X by factor IXa compared with 20% PS/PC membranes (factor IXa [1]; 700 μM C6PS): identical
Kd (APC): ~1000 nM
C6PS in stoichiometry Xa:Va2:C6PS of the complex from molecular mass (FXa•FVa2 complex; 400 μM C6PS): 3.4±7.7
most likely number of C6PS molecules bound to the complex (FXa•FVa2 complex; based on equilibrium dialysis stoichiometries): 5-6 molecules
Kd (factor IXa [2]): ~1300 nM
